Results: patent publication US5972947A, “Oxazolidinone derivatives, processes for the production thereof and pharmaceutical agents containing these compounds” (Roche Diagnostics GmbH, priority 1995, dated 1999)

The molecules below were run against GpIIb/IIIa receptor (Homo sapiens, UniProt P05106+P08514) (assay: GpIIb/IIIa fibrinogen ELISA (inhibition of the fibrinogen-GpIIb/IIIa interaction)). Conditions: isolated activated GpIIb/IIIa receptor coated at 2 μg/ml; fibrinogen ligand, 1 hour incubation; OD at 405 nm.
Sequence of GpIIb/IIIa receptor (P08514 32-887 limits assumed): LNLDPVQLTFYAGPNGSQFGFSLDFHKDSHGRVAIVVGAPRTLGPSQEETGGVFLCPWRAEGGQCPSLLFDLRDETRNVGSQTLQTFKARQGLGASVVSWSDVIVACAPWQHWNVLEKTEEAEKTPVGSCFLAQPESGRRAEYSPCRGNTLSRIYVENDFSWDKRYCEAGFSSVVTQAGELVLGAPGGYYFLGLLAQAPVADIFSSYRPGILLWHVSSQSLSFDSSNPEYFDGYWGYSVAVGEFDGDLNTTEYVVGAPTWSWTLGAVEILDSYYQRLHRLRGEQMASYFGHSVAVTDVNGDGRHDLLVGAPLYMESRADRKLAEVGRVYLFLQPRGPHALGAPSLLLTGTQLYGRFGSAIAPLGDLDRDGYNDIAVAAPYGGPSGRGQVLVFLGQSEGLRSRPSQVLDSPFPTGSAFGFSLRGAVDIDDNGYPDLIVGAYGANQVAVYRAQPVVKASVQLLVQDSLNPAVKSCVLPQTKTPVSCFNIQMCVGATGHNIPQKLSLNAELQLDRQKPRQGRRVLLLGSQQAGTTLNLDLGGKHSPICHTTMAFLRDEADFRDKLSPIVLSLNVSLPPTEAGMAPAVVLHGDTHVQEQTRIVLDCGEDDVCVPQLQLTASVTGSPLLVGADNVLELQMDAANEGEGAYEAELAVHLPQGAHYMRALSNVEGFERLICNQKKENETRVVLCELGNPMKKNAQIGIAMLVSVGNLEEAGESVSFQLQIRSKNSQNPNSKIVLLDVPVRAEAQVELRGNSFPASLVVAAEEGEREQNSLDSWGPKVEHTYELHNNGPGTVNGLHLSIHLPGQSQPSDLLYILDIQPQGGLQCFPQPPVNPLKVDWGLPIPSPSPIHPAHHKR
Sequence of GpIIb/IIIa receptor (P08514 891-1039 partner limits assumed): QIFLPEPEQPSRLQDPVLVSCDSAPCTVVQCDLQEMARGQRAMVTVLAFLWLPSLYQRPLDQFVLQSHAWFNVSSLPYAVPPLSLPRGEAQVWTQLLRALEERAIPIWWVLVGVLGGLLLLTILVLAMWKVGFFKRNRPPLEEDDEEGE
Sequence of GpIIb/IIIa receptor (P05106 27-788): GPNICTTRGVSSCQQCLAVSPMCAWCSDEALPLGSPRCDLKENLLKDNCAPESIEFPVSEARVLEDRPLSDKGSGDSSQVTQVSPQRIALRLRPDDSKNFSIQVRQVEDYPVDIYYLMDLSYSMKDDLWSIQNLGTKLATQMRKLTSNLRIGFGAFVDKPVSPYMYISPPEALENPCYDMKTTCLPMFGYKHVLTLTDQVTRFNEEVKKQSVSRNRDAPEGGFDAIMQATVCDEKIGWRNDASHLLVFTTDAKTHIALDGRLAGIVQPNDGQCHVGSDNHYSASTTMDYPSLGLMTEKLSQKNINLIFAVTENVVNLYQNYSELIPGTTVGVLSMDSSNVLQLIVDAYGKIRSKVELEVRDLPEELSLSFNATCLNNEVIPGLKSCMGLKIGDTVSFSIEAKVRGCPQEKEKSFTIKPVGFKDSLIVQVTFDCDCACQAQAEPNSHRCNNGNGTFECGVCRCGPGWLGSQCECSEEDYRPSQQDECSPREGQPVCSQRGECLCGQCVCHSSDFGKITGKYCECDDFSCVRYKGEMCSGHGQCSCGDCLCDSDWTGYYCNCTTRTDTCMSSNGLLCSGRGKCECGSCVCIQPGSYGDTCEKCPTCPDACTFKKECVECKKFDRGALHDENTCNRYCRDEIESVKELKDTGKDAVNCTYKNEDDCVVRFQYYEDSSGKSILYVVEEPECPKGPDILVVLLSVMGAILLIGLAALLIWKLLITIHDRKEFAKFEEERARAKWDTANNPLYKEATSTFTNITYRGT
Format: binding
Protocol: Microtitre plates were coated overnight with 2 μg/ml isolated activated GpIIb/IIIa receptor. After the unbound receptor had been removed by several washing steps, the surface of the plate was blocked with 1% casein and washed again. The test substance was added at the necessary concentrations, the plates were subsequently incubated for 10 minutes while shaking in a linear shaker. The natural ligand of the GpIIb/IIIa receptor fibrinogen was added thereto. After incubating for 1 hour, unbound fibrinogen was removed by several washing steps and bound fibrinogen was determined in an ELISA reader by determining the change in optical density at 405 nm caused by a peroxidase conjugated monoclonal antibody. Inhibition of the fibrinogen-GpIIb/IIIa interaction leads to low optical densities. The IC50 value was determined by means of a concentration-effect curve.
The GpIIb/IIIa fibrinogen ELISA is a modification of the assay which is described in the following references:
Nachman, R. L. & Leung, L. L. K. (1982): Complex formation of platelet membrane glycoproteins IIb and IIIa with fibrinogen. J. Clin. Invest. 69: 263-269.
Wright, P. S. et al. […]; An echistatin C-terminal peptide activated GpIIb/IIIa binding to fibrinogen, fibronectin, vitronectin and collagen type I and type IV. Biochem. J. 293: 262-267.

| SMILES | IC50 [nM] |
| --- | --- |
| O=C(O)C=C1CCN(CC2CN(C3CCN(c4ccncc4)CC3)C(=O)O2)CC1 (racemic) [Example 3, {1-[(rac)-2-Oxo-3-(3,4,5,6-tetrahydro-2H-[1,4']bipyridinyl-4yl)-oxazolidin-5-ylmethyl]-piperidin-4-ylidene}-acetic acid] | 1400 |
| C[C@]1(CN2CCC(C(=O)O)CC2)CN(C2CCN(c3ccncc3)CC2)C(=O)O1 [No. 78, (5S)-1-[5-Methyl-2-oxo-3-(3,4,5,6-tetrahydro-2H-[1,4']bipyridinyl-4-yl)-oxazolidin-5-ylmethyl]-piperidine-4-carboxylic acid] | 600 |
| O=C(O)C1CCN(CC2OC(=O)N(C3CCN(c4ccncc4)CC3)C2c2cccc(C(F)(F)F)c2)CC1 (stereo not drawn) [No. 79, 1-[2-Oxo-3-(3,4,5,6-tetrahydro-2H-[1,4']bipyridinyl-4-yl)-4-(3-trifluoromethylphenyl)-oxazolidin-5-ylmethyl]-piperidine-4-carboxylic acid] | 1300 |
| O=C(O)C1CCC(O)(CC2CN(C3CCN(c4ccncc4)CC3)C(=O)O2)CC1 (stereo not drawn) [10 c)] | < 300 |
| O=C(O)C1CCN(CC2CN(C3CCN(c4ccncc4)CC3)C(=O)O2)CC1 (racemic) [Example 2, 1-[(rac]-2-Oxo-3-(3,4,5,6-tetrahydro-2H-[1,4']bipyridinyl-4-yl)-oxazolidin-5-ylmethyl]-piperidine-4-carboxylic acid] | < 300 |
| O=C(O)C1CCN(C[C@H]2CN(C3CCN(c4ccncc4)CC3)C(=O)O2)CC1 [Example 1, 1-[(5S)-2-oxo-3-(3,4,5,6-tetrahydro-2H-[1,4']bipyridinyl-4-yl)-oxazolidin-5-ylmethyl]-piperidine-4-carboxylic acid] | < 300 |
| O=C(O)C1CCN(CC2OC(=O)N(C3CCN(c4ccncc4)CC3)C2c2ccccc2)CC1 (stereo not drawn) [10 a)] | 300 |
| O=C(O)CC1(O)CCN(CC2CN(C3CCN(c4ccncc4)CC3)C(=O)O2)CC1 (stereo not drawn) [Example 5, {4-Hydroxy-1-[2-oxo-3-(3,4,5,6-tetrahydro-2H-[1,4']bipyridinyl-4-yl)-oxazolidin-5-ylmethyl]-piperidin-4-yl}acetic acid] | 1000 |
| O=C(O)C1CCN(CC2CN(C3CCN(c4ccncn4)CC3)C(=O)O2)CC1 (stereo not drawn) [Example 8, 1-[2-Oxo-3-(1-pyrimidin-4-yl-piperidin-4-yl)-oxazolidin-5-ylmethyl]-piperidine-4-carboxylic acid] | 300 |
| O=C(O)C1CCN(CC2CN(C3CCN(c4ccnc(NCc5ccccc5)n4)CC3)C(=O)O2)CC1 (stereo not drawn) [Example 9, 1-{3-[1-(2-Benzylamino-pyrimidin-4-yl)-piperidin-4-yl]-2-oxo-oxazolidin-5-ylmethyl}-piperidine-4-carboxylic acid] | 70 |
| O=C(O)C1CCN(CC2OC(=O)N(C3CCN(c4ccncc4)CC3)C2c2ccc(Cl)cc2)CC1 (stereo not drawn) [No. 80, 1-[4-(4-Chlorophenyl)-2-oxo-3-(3,4,5,6-tetrahydro-2H-[1,4']bipyridinyl-4-yl)-oxazolidin-5-ylmethyl]-piperidine-4-carboxylic acid] | 500 |
| CC1C(CN2CCC(C(=O)O)CC2)OC(=O)N1C1CCN(c2ccncc2)CC1 (stereo not drawn) [Example 7, 1-[4-Methyl-2-oxo-3-(3,4,5,6-tetrahydro-2H-[1,4']bipyridinyl-4-yl)-oxazolidin-5-ylmethyl]-piperidine-4-carboxylic acid] | < 300 |
